Laboratory results taken from patent US8877889B2, “Tumor cell-killing peptides” (Industry-Academic Cooperation Foundation, Chosun University, priority 2009, dated 2014).
Entries after “also recorded” stand apart in the source; their conditions may differ. No end group written: not given here.

Assays:
[1] = test system: NCI-H460 cells; experiment: Peptide-induced cell death in NCI-H460 cells; assay type: cell-based; conditions: 5 μM, 2 or 5 hours (FIG. 3C)
Procedure: (C) NCI-H460 cells were treated with indicated peptides for 2 hours or 5 hours. % cell death was determined as described above.

[2] = test system: Isolated mouse liver mitochondria; experiment: Isolated mitochondria treated with peptide, transmission electron microscopy; conditions: 10 μM peptide; 1 hour at 30° C.
Procedure: (D) Isolated mouse liver mitochondria were treated with buffer (NT), MTD peptide (10 μM), or MTDmt5 peptide (10 μM), and then incubated for 1 hour at 30° C. Mitochondria were harvested by centrifugation (10,000×rpm) and then processed for transmission electron microscopy. Images (upper panel) were obtained with 7,000× magnification, and the relative mitochondrial sizes (lower panel) were calculated by measuring the diameters of about 40 individual mitochondria.
Jurkat cells or isolated mitochondria treated with MTD peptides were harvested by centrifugation and fixed with 2.5% glutaraldehyde for 2 hours followed by washing with 0.2 M sodium cacodylate buffer (pH 7.2) three times for 10-20 minutes. Fixation step was repeated overnight and washed with 0.2 M sodium cacodylate buffer three times. Samples were dehydrated with following sequential solutions 60% ethanol, 70% ethanol, 80% ethanol, 90% ethanol, 95% ethanol, and 100% ethanol twice for 20 minutes at 4° C., and then infiltrated by propylene oxide three times for 20 minutes. Samples were embedded with the mixture of propylene oxide and epon for 6 hours. Electron microscopic images were obtained using the Hitachi H-7600 electron microscope (80 kV, Hitachi, Tokyo, Japan). Mitochondria were isolated from mouse liver as previously described (1).

[3] = test system: HeLa cells; experiment: Peptide-induced cell death, counting dead and survived cells under the light microscope; assay type: cell-based; conditions: peptides 10 μM, 20 μM, 30 μM, 10 minutes after treatment (FIG. 1B, 3A)
Procedure: (B) HeLa cells were treated with DMSO or the indicated peptides in increasing doses (10 μM, 20 μM, and 30 μM). % of cell death was determined at 10 minutes after treatment by counting the dead cells and survived cells under the light microscope.
(E) HeLa cells were transfected with substitution mutants of MTD peptide.
HeLa cells were treated with DMSO or with the indicated peptides at increasing doses (10 μM, 20 μM, or 30 μM). % cell death was determined 10 minutes after treatment by counting the dead cells and survived cells (300 cells per sample) under the light microscope.
(D) HeLa cells were treated with indicated amounts of MTD peptide for 1 hour, 2 hours, or 5 hours. % cell death was calculated by counting the dead cells and survived cells (200 to 500 cells per sample) under the light microscope. Data represent the means±SD of three independent experiments.

[4] = test system: HeLa cells; experiment: Caspase activation, western blot of cell lysates; assay type: cell-based; conditions: 5 μM peptide
Procedure: (E) After treatment with the MTD peptide, MTDmt4, or MTDmt5 (5 μM) in HeLa cells, cell lysates were prepared at indicated times. Equal amounts of proteins were subjected to the SDS-PAGE and blotted onto PVDF membrane. After blocked with 5% nonfat milk in TBST (10 mM Tris-HCl, pH 7.5, 100 mM NaCl and 0.1% Tween-20), the membrane was probed with anti-caspase-3 (SantaCruz Biotechnology, Inc., Santa Cruz, Calif., USA), anti-caspase-8 (Cell signaling technology, Beverly, Mass., USA), anti-caspase-9 (SantaCruz Biotechnology, Inc., Santa Cruz, Calif.), anti-XIAP (Upstate Biotechnology, Dundee, United Kingdom), or anti-Bid (home-made) antibodies. Anti-actin antibody (Chemicon International, Inc., Temecula, Calif., USA) was used as equal loading control.

[5] = test system: HeLa cells; experiment: Measurement of intracellular calcium with Fluo-4-AM; assay type: cell-based; conditions: 3 μM peptide
Procedure: (A-C) HeLa cells were loaded with 3 μM Fluo-4-AM for 30 minutes and then treated with 3 μM of indicated peptides (A: MTD, B: MTDmt3, C: MTDmt5). Fluorescence images and bright-field images were obtained with the laser scanning confocal microscope at 5-second intervals for 5 minutes. Relative fluorescence intensities (F/F0) at two region-of-interests (ROI 1 and 2) were measured at 5-second intervals for 5 minutes.
(E-G) HeLa cells were pretreated in calcium free KRB media alone (E), in KRB media with 10 μM 2-APB and 20 μM Ryanodine (F), or in KRB media with freshly made 30 μM CsA (G) for 2 hours. HeLa cells were then loaded with 3 μM Fluo-4-AM for 30 minutes and treated with 3 μM of MTD peptide. Images were obtained with the laser scanning confocal microscope at 5-second intervals for 5 minutes. Relative fluorescence intensities (F/F0) at two region-of-interests (ROI 1 and 2) were measured at 5-second intervals for 5 minutes.
For Ca^2+ measurements in the cytosol, HeLa cells were cultured in an Lab-Tek™ Chamber glass slide and loaded with Fluo-4-AM (Fluo-4-acetoxymethyl ester) at a final concentration of 3 μM for 30 minutes, followed by washing with PBS (Phosphate buffered saline) at pH 7.4 and the addition of fresh Ca^2+-free Krebs-ringer modified buffer (KRB: 125 mM NaCl, 5 mM KCl, 1 mM Na3PO4, 1 mM MgSO4, 5.5 mM glucose, and 20 mM HEPES, pH 7.4, at 37° C.) containing the indicated peptides. Time-lapse images were obtained at 488 nm excitation with the Argon laser scanning confocal microscope (Leica TCS SP5 Microsystems, Mannheim, Germany) at 10-second intervals for 5 minutes to visualize Fluo-4-AM.

[6] = test system: CT-26 cells; experiment: Syngeneic animal tumor model; assay type: in vivo; conditions: Balb/c mice with CT26 tumors; for tumor size (tumor volume) versus PBS: i.v. tail vein every two days, TU2:MTD 385 μg/mouse, TU3:MTD 230 μg/mouse; for cell death of tumor cells, histochemical examination of tumors: i.v., hematoxylin and eosin
Procedure: (§1) (A) CT26 cells were injected subcutaneously into the Balb/c mice. Tumor cells were grown for 7 days, and TU2:MTD peptide (385 μg/mouse) or PBS was intravenously injected through the tail vein (n=10 animals/group) every two days from day 7 to day 19. Tumor volume was calculated as the longest diameter×width2×0.5.
(B) TU3:MTD peptide (230 μg/mouse) or PBS were intravenously injected to the Balb/c mice bearing tumor through the tail vein (n=5 animals/group) every two days from day 8 to day 20. Tumor volume was measured as described above.
(C) Tumors were obtained from the mice treated with PBS, TU2:MTD or TU3:MTD upon sacrificing the mice, and were stained with hematoxylin and eosin. Images (400× magnification) at tumor regions were obtained (left), and the boxed region were enlarged (right).
as §1, with “(B)” for “(A)”, “weights were measured after mice were sacrificed.” for “volume was calculated as the longest diameter×width2×0.5.”
(C) TU3:MTD peptide (230 μg/mouse) or PBS were intravenously injected to the Balb/c mice bearing tumor through the tail vein (n=5 animals/group) every two days from day 8 to day 20. Tumor weights were measured as described above.
(§2) We followed the university's institutional guidelines and regulations for animal experiments. Tumors were established in Balb/c mice by subcutaneous injection of CT-26 cells (1.5×10^5 cells) into the mouse as described (14). Tumor volume was calculated as length×width^2×0.5. Tumor cells were grown for 7 to 8 days, and TU2:MTD peptide (385 μg/mouse), TU3:MTD peptide (230 μg/mouse), or PBS was intravenously injected through the tail vein every two days until the mice were sacrificed.

[7] = test system: CT26 mouse colon carcinoma cells; experiment: Tumor cell killing activity, bright field images; assay type: cell-based; conditions: 10 μM peptide (FIG. 9A)
Procedure: (A) CT26 cells were treated with 10 μM MTD, TU1:MTD, TU2:MTD, or TU3:MTD peptides, and bright field images for indicated peptides were obtained at indicated time points. Representative images of at least 3 individual experiments were presented.

[8] = Toxicity in peptide-injected mice (histology of skin, liver, kidney; body weight); assay type: in vivo, Balb/c mice; conditions: for apparent toxic effects in mice: i.v. injected mice; for damage in liver and kidney tissues, microscopic analysis: mice injected seven times every two days; for body weight loss: peptide-injected mice; for cell death in dermis and epidermis regions: peptide-injected tumor-bearing mice, hematoxylin and eosin
Source text: (D) Images (400× magnification) of liver and kidney from normal mice or mice treated with, PBS, TU2:MTD or TU3:MTD peptides seven times every two days were obtained after stained with hematoxylin and eosin.
(D) Images (100× magnification) of dermis and epidermis region of normal skin or adjacent to tumor treated with PBS, TU2:MTD or TU3:MTD peptides were obtained after stained with hematoxylin and eosin.
as §2

[9] = test system: HeLa cells; experiment: Cytochrome c release by immunofluorescence; assay type: cell-based; conditions: HeLa cells transfected; 2 days in the presence of zVAD-fmk
Procedure: (B) Plasmids (control vector or Noxa WT fused to GFP) were transfected into HeLa cells. After 2 days in the presence of zVAD-fmk, cytochrome c was stained with anti-cytochrome c antibody. Arrows indicate the diffused cytochrome c staining (upper panel). The release of cytochrome c was analyzed by immunofluorescence in HeLa cells after treatment with MTD peptides (5 μM) (lower panel).

[10] = test system: HeLa cells; experiment: Cell death after transfection of Noxa constructs, counting EGFP-positive dead cells; assay type: cell-based
Procedure: (D) HeLa cells were transfected with deletion mutants of Noxa. At 11 hrs, 24 hrs, and 36 hrs after transfection, cell death was determined by counting EGFP-positive dead cells with morphological changes using the fluorescent microscope.
(B) HeLa cells were transfected with WT or with the indicated Noxa mutants. 20 hours after transfection cell death was determined by counting the EGFP-positive dead and survived cells under the fluorescent microscope.
(A) HeLa cells were transfected with either WT Noxa, 4Lmt (L42A, L43A, L45A, L49A), or 5Lmt (L29A, L42A, L43A, L45A, L49A) constructs. At the indicated times after transfection, cell death was determined by counting the EGFP-positive dead cells with morphological changes under the fluorescent microscope.
HeLa cells were transfected with EGFP-Noxa WT and 41-54 in combination with Bcl-2 expression plasmid or in the presence of zVAD-fmk (25 μM). 18 hours after transfection, cell death was determined by counting EGFP-positive dead cells with morphological changes using the fluorescent microscope. Data represent an average±SD of three experiments each with 200 total cells counted.
The percentage of cell death was determined by counting EGFP-positive dead cells with morphology using the fluorescent microscope. Minimally, 300 cells in three separate fields were counted for each measurement.

[11] = test system: HeLa cells; experiment: Cell death assayed by cell counting kit-8, with or without caspase inhibitor pre-treatment; assay type: cell-based; conditions: 5 μM peptide for 5 hours (FIG. 2C)
Procedure: (C) HeLa cells were pre-treated with zVAD-fmk (25 μM) or IDN-6556 (25 μM) 1 hour before MTD-peptide treatment. After treatment of 5 μM of R8, ΔR8-MTD, and R8:MTD peptides for 5 hours, cell death was assayed by cell counting kit-8 (Dojindo Molecular Technologies, Rockville, USA).

Substance: RRRRRRRRGRQKLLNLISKAA (PTD-MTDmt5 fusion peptide derived from Homo sapiens)
- susceptibility of cells to peptide [1]: not
- morphological changes or mitochondrial size changes of isolated mitochondria [2]: did not show any morphological changes or mitochondrial size changes
- cell death-inducing activity (% of cell death) [3]: no killing activity; also recorded: completely lost their cell death-inducing activities; also recorded: no cell death
- caspase activation [4]: not activated
- cytosolic calcium level change [5]: did not induce changes in the cytosolic calcium level

Substance: CGNKRTRGCGGKLLNLISKLF (TU3-MTD fusion peptide derived from Homo sapiens) [TU3:MTD]
- tumor size (tumor volume) versus PBS [6]: significantly smaller tumors
- cell death of tumor cells, histochemical examination of tumors [6]: massive cell death of tumor cells
- tumor cell killing activity [7]: comparable killing activities to MTD peptide
- apparent toxic effects in mice [8]: do not show apparent toxic effects
- damage in liver and kidney tissues, microscopic analysis [8]: no damages in liver and kidney tissues
- body weight loss [8]: no body weight loss
- cell death in dermis and epidermis regions [8]: no or little cell death

Substance: CNGRCVSGCAGRCGGKLLNLISKLF (TU2-MTD fusion peptide derived from Homo sapiens) [TU2:MTD]
- tumor size (tumor volume) versus PBS [6]: significantly smaller tumors
- cell death of tumor cells, histochemical examination of tumors [6]: massive cell death of tumor cells
- tumor cell killing activity [7]: comparable killing activities to MTD peptide
- apparent toxic effects in mice [8]: do not show apparent toxic effects
- damage in liver and kidney tissues, microscopic analysis [8]: no damages in liver and kidney tissues
- body weight loss [8]: no body weight loss
- cell death in dermis and epidermis regions [8]: no or little cell death

Substance: WT Noxa: wild type Noxa (1-54) expressed from pEGFP-Noxa by transfection (MPGKKARKNAQPSPARAPAELEVECATQLRRFGDKLNFRQKLLNLISKLFCSGT; cysteine pairing not given here; also: EGFP fusion (pEGFP-Noxa); UniProt Q13794 1-54, looked up)
- cytochrome c release from mitochondria [9]: able to release the cytochrome c from mitochondria
- cell death ([10]; HeLa cells transfected (FIG. 8A)): more than 60%
- cell death after over-expression ([10]; HeLa cells, within 11 hrs after transfection (FIG. 1D)): induced cell death within 11 hrs
- inhibition of transfection-induced cell death by zVAD-fmk ([10]; HeLa cells, zVAD-fmk 25 μM, 18 hours after transfection (FIG. 10)): significantly inhibited by zVAD-fmk

Substance: KLLNLISKLF [ΔR8:MTD]
- cell death [11]: could not cause cell death; also recorded: no cell death-inducing activity
